{"source": "patent US11299488B2", "about": "“Five membered-aminoheterocycle and 5,6-or 6,6-membered bicyclic aminoheterocyclic inhibitors of rock for the treatment of heart failure” (BRISTOL-MYERS SQUIBB COMPANY, priority 2017, dated 2022)", "data": [{"tested_on": "IL-1 beta-induced coronary stenosis", "assay": "not given", "conditions": "long term treatment; cited from earlier work", "values": [{"smiles": "O=S(=O)(c1cccc2cnccc12)N1CCCNCC1", "note": "[fasudil]", "coronary constrictive remodeling": "promote a regression of coronary constrictive remodeling", "coronary stenosis": "progressively reduce coronary stenosis"}]}, {"tested_on": "congestive heart failure in Dahl salt-sensitive rats", "assay": "not given", "conditions": "rat, in vivo; cited from earlier work", "values": [{"smiles": "C[C@@H](N)[C@H]1CC[C@H](C(=O)Nc2ccncc2)CC1", "note": "[Example Y-27632, Y-27632]", "ventricular hypertrophy, fibrosis and function": "improve ventricular hypertrophy, fibrosis and function"}]}, {"tested_on": "neointimal formation", "assay": "not given", "conditions": "rats, similar model to balloon injury; cited from earlier work", "values": [{"smiles": "C[C@@H](N)[C@H]1CC[C@H](C(=O)Nc2ccncc2)CC1", "note": "[Example Y-27632, Y-27632]", "neointimal formation": "inhibited neointimal formation"}]}, {"tested_on": "spontaneously hypertensive rat, renal hypertensive rat and deoxycortisone acetate salt hypertensive rat models", "assay": "not given", "conditions": "control rats; cited from earlier work", "values": [{"smiles": "C[C@@H](N)[C@H]1CC[C@H](C(=O)Nc2ccncc2)CC1", "note": "[Example Y-27632, Y-27632]", "blood pressure in control rats": "only a minor effect on blood pressure"}]}, {"tested_on": "spontaneously hypertensive rat, renal hypertensive rat and deoxycortisone acetate salt hypertensive rat models", "assay": "not given", "conditions": "three rat models of hypertension; cited from earlier work", "values": [{"smiles": "C[C@@H](N)[C@H]1CC[C@H](C(=O)Nc2ccncc2)CC1", "note": "[Example Y-27632, Y-27632]", "blood pressure": "significantly decrease blood pressure"}]}, {"tested_on": "rat stroke model", "assay": "not given", "conditions": "in vivo; cited from earlier work", "values": [{"smiles": "O=S(=O)(c1cccc2cnccc12)N1CCCNCC1", "note": "[fasudil]", "infarct size and neurologic deficit": "reduce both the infarct size and neurologic deficit"}]}, {"molecular_target": "ROCK2 (Homo sapiens (Human), UniProt O75116)", "sequence (O75116 whole entry, species assumed)": "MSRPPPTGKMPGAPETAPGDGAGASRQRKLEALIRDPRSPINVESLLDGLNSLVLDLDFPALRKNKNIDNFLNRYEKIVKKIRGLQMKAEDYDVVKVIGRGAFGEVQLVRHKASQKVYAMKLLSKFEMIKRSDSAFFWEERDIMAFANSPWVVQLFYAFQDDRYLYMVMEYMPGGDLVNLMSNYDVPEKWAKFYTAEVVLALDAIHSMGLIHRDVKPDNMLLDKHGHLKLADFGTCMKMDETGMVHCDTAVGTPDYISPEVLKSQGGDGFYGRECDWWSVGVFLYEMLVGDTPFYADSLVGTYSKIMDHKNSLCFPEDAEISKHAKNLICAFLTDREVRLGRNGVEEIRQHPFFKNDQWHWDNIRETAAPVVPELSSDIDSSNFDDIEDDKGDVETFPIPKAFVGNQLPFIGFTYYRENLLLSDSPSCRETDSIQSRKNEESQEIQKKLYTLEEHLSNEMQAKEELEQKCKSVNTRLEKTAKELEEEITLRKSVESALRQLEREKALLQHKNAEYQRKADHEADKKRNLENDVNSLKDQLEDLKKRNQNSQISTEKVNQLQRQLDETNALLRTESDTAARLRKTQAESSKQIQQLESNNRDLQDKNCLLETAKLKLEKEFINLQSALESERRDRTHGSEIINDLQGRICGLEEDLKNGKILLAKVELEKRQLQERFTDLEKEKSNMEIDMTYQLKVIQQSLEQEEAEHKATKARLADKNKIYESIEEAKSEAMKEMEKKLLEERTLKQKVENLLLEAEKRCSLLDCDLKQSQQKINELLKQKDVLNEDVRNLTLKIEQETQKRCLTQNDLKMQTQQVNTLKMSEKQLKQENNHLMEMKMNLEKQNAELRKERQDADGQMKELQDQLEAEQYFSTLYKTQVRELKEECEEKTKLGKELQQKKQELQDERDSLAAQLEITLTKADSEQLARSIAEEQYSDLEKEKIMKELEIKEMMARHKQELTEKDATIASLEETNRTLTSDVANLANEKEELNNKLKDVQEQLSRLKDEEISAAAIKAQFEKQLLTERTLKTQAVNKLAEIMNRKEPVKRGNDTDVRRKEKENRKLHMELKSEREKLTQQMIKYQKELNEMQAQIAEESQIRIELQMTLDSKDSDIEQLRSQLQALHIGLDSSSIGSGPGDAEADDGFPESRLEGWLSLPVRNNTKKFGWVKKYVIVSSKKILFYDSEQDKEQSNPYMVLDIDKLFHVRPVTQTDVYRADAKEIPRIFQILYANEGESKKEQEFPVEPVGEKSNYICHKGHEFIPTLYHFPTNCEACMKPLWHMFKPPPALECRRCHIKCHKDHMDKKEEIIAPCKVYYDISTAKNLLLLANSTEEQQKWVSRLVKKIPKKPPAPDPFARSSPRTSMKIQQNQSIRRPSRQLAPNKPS", "assay": "ROCK assay (Caliper LABCHIP peptide phosphorylation, 5 μM ATP)", "format": "biochemical", "conditions": "not given", "description": "The effectiveness of compounds of the present invention as ROCK inhibitors can be determined in a 30 μL assay containing 20 mM HEPES, pH 7.5, 20 mM MgCl2, 0.015% Brij-35, 4 mM DTT, 5 μM ATP and 1.5 μM peptide substrate (FITC-AHA-AKRRRLSSLRA-OH) (SEQ ID No. 1). Compounds were dissolved in DMSO so that the final concentration of DMSO was <2%, and the reaction was initiated with Rho kinase variants. After incubation, the reaction was terminated by the addition of EDTA and the phosphorylated and non-phosphorylated peptides separated using a LABCHIP® 3000 Reader (Caliper Life Sciences). […] Compounds were tested in dose-response format, and the inhibition of kinase activity was calculated at each concentration of compound. The inhibition data were fit using a curve-fitting program to determine the IC50; i.e., the concentration of compound required to inhibit 50% of kinase activity. Representative Examples were tested in the ROCK assay described above and found having ROCK inhibitory activity. A range of ROCK inhibitory activity (IC50 values) of ≤50 μM (50000 nM) was observed. Table A below lists the ROCK IC50 values measured for the following examples.", "units": {"IC50": "nM"}, "values": [{"smiles": "[H][C@]1(Oc2ncccc2C(N)=O)C[C@]2(C[C@@H](Nc3nccc(N4CCCC(F)C4)n3)C2)C1", "note": "(stereo partly drawn) [Example 41, 2-(((2S,4s,6S)-6-((4-(3-fluoro-piperidin-1-yl)pyrimidin-2-yl)amino)spiro [3.3]heptan-2-yl)oxy) nicotinamide]", "IC50": 496}, {"smiles": "[H][C@]1(Oc2ncccc2C(N)=O)C[C@@]2(C[C@H](Nc3nccc(N4CC[C@H](F)C4)n3)C2)C1", "note": "(stereo partly drawn) [Example 42, 2-(((2S,4r,6S)-6-((4-((S)-3-fluoro-pyrrolidin-1-yl)pyrimidin-2-yl)amino)spiro [3.3]heptan-2-yl)oxy) nicotinamide]", "IC50": 2030}, {"smiles": "[H][C@]1(Oc2ncccc2C(N)=O)C[C@]2(C[C@@H](Nc3nccc(N4CCC(C(F)(F)F)CC4)n3)C2)C1", "note": "(stereo partly drawn) [Example 43, 2-(((2S,4s,6S)-6-((4-(4-(trifluoro-methyl)piperidin-1-yl)pyrimidin-2-yl)amino)spiro[3.3]heptan-2-yl)oxy) nicotinainide]", "IC50": 165}, {"smiles": "[H][C@]1(Oc2ncccc2C(N)=O)C[C@]2(C[C@@H](Nc3nccc(NC4CCC(F)(F)CC4)n3)C2)C1", "note": "(stereo partly drawn) [Example 44, 2-(((2S,4s,6S)-6-((4-((4,4-difluoro-cyclohexyl)amino)pyrimidin-2-yl)amino)spiro[3.3]heptan-2-yl)oxy) nicotinamide]", "IC50": 489}, {"smiles": "[H][C@]1(Oc2ncccc2C(N)=O)C[C@]2(C[C@@H](Nc3nccc(NCC(C)(C)CO)n3)C2)C1", "note": "(stereo partly drawn) [Example 45, 2-(((2S,4s,6S)-6-((4-((3-hydroxy-2,2-dimethyl-propyl)amino)pyrimidin-2-yl)amino)spiro[3.3]heptan-2-yl)oxy) nicotinamide]", "IC50": 678}, {"smiles": "[H][C@]1(Oc2ncccc2C(N)=O)C[C@]2(C[C@@H](Nc3nccc(-c4ccncc4)n3)C2)C1", "note": "(stereo partly drawn) [Example 46, 2-(((2S,4s,6S)-6-((4-(pyridin-4-yl)pyrimidin-2-yl)amino)spiro[3.3]heptan-2-yl)oxy)nicotinamide]", "IC50": 557}, {"smiles": "[H][C@]1(Oc2ncccc2C(N)=O)C[C@]2(C[C@@H](Nc3nccc(-c4ccc(F)cc4)n3)C2)C1", "note": "(stereo partly drawn) [Example 47, 2-(((2S,4s,6S)-6-((4-(4-fluorophenyl)pyrimidin-2-yl)amino)spiro[3.3]heptan-2-yl)oxy) nicotinamide]", "IC50": 211}, {"smiles": "[H][C@]1(Oc2ncccc2C(N)=O)C[C@]2(C[C@@H](Nc3nccc(-c4ccc(C#N)cc4)n3)C2)C1", "note": "(stereo partly drawn) [Example 48, 2-(((2S,4s,6S)-6-((4-(4-cyanophenyl)pyrimidin-2-yl)amino)spiro[3.3]heptan-2-yl)oxy) nicotinamide]", "IC50": 204}, {"smiles": "[H][C@]1(Oc2ncccc2C(N)=O)C[C@]2(C[C@@H](Nc3nccc(-c4cccc(F)c4)n3)C2)C1", "note": "(stereo partly drawn) [Example 49, 2-(((2S,4s,6S)-6-((4-(3-fluorophenyl)pyrimidin-2-yl)amino)spiro[3.3]heptan-2-yl)oxy) nicotinamide]", "IC50": 149}, {"smiles": "[H][C@]1(Oc2ncccc2C(N)=O)C[C@]2(C[C@@H](Nc3nccc(-c4ccc(C(=O)N(C)C)cc4)n3)C2)C1", "note": "(stereo partly drawn) [Example 50, 2-(((2S,4s,6S)-6-((4-(4-(dimethyl-carbamoyl)phenyl)pyrimidin-2-yl)amino)spiro[3.3]heptan-2-yl)oxy) nicotinamide]", "IC50": 1100}, {"smiles": "[H][C@]1(Oc2ncccc2C(N)=O)C[C@]2(C[C@@H](Nc3nccc(-c4cccnc4)n3)C2)C1", "note": "(stereo partly drawn) [Example 51, 2-(((2S,4s,6S)-6-((4-(pyridin-3-yl)pyrimidin-2-yl)amino)spiro[3.3]heptan-2-yl)oxy) nicotinamide]", "IC50": 414}, {"smiles": "[H][C@]1(Oc2ncccc2C(N)=O)C[C@]2(C[C@@H](Nc3nccc(-c4cccc(C#N)c4)n3)C2)C1", "note": "(stereo partly drawn) [Example 52, 2-(((2S,4s,6S)-6-((4-(3-cyanophenyl)pyrimidin-2-yl)amino)spiro[3.3]heptan-2-yl)oxy) nicotinamide]", "IC50": 87}, {"smiles": "[H][C@]1(Oc2ncccc2C(N)=O)C[C@]2(C[C@@H](Nc3nccc(-c4cccc(C(=O)N(C)C)c4)n3)C2)C1", "note": "(stereo partly drawn) [Example 53, 2-(((2S,4s,6S)-6-((4-(3-(dimethyl-carbamoyl)phenyl)pyrimidin-2-yl)amino)spiro[3.3]heptan-2-yl)oxy) nicotinamide]", "IC50": 284}, {"smiles": "[H][C@]1(Oc2ncccc2C(N)=O)C[C@]2(C[C@@H](Nc3nccc(-c4cnn(C)c4)n3)C2)C1", "note": "(stereo partly drawn) [Example 54, 2-(((2S,4s,6S)-6-((4-(1-methyl-1H-pyrazol-4-yl)pyrimidin-2-yl)amino)spiro[3.3]heptan-2-yl)oxy) nicotinamide]", "IC50": 874}, {"smiles": "[H][C@]1(Oc2ncccc2C(N)=O)C[C@]2(C[C@@H](Nc3ccnc(N4CCCC(F)(F)C4)n3)C2)C1", "note": "(stereo partly drawn) [Example 60, 2-(((2S,4s,6S)-6-((2-(3,3-difluoropiperidin-1-yl)pyrimidin-4-yl)amino)spiro[3.3]heptan-2-yl)oxy)nicotinamide]", "IC50": 220}, {"smiles": "[H][C@]1(Oc2ncccc2C(N)=O)C[C@]2(C[C@@H](Nc3ccnc(N4CCC(F)(F)CC4)n3)C2)C1", "note": "(stereo partly drawn) [Example 61, 2-(((2S,4s,6S)-6-((2-(4,4-difluoro-piperidin-1-yl)pyrimidin-4-yl)amino)spiro[3.3]heptan-2-yl)oxy) nicotinamide]", "IC50": 334}, {"smiles": "[H][C@]1(Oc2ncccc2C(N)=O)C[C@]2(C[C@@H](Nc3ccnc(N4CCC(F)(F)C4)n3)C2)C1", "note": "(stereo partly drawn) [Example 62, 2-(((2S,4s,6S)-6-((2-(3,3-difluoro-pyrrolidin-1-yl)pyrimidin-4-yl)amino)spiro[3.3]heptan-2-yl)oxy) nicotinamide]", "IC50": 398}, {"smiles": "[H][C@]1(Oc2ncccc2C(N)=O)C[C@]2(C[C@@H](Nc3ccnc(N4CCC(F)CC4)n3)C2)C1", "note": "(stereo partly drawn) [Example 63, 2-(((2S,4s,6S)-6-((2-(4-fluoro-piperidin-1-yl)pyrimidin-4-yl)amino)spiro [3.3]heptan-2-yl)oxy) nicotinamide]", "IC50": 733}, {"smiles": "[H][C@]1(Oc2ncccc2C(N)=O)C[C@]2(C[C@@H](Nc3ccnc(N4CCCC(F)C4)n3)C2)C1", "note": "(stereo partly drawn) [Example 64, 2-(((2S,4s,6S)-6-((2-(3-fluoro-piperidin-1-yl)pyrimidin-4-yl)amino)spiro [3.3]heptan-2-yl)oxy) nicotinamide]", "IC50": 890}, {"smiles": "[H][C@]1(Oc2ncccc2C(N)=O)C[C@]2(C[C@@H](Nc3ccnc(N4CCC(C(F)(F)F)CC4)n3)C2)C1", "note": "(stereo partly drawn) [Example 65, 2-(((2S,4s,6S)-6-((2-(4-(trifluoro-methyl)piperidin-1-yl)pyrimidin-4-yl)amino)spiro[3.3]heptan-2-yl)oxy) nicotinamide]", "IC50": 964}, {"smiles": "[H][C@]1(Oc2ncccc2C(N)=O)C[C@]2(C[C@@H](Nc3ccnc(-c4cccc(C#N)c4)n3)C2)C1", "note": "(stereo partly drawn) [Example 66, 2-(((2S,4s,6S)-6-((2-(3-cyanophenyl)pyrimidin-4-yl)amino)spiro[3.3]heptan-2-yl)oxy)nicotinamide]", "IC50": 1070}, {"smiles": "[H][C@]1(Oc2ncccc2C(N)=O)C[C@]2(C[C@@H](Nc3ccnc(-c4cccc(C(=O)N(C)C)c4)n3)C2)C1", "note": "(stereo partly drawn) [Example 67, 2-(((2S,4s,6S)-6-((2-(3-(dimethyl-carbamoyl)phenyl)pyrimidin-4-yl)amino)spiro[3.3]heptan-2-yl)oxy) nicotinamide]", "IC50": 1170}, {"smiles": "[H][C@]1(Oc2ncccc2C(N)=O)C[C@]2(C[C@@H](Nc3ccnc(N4CC(F)(F)C4)n3)C2)C1", "note": "(stereo partly drawn) [Example 68, 2-(((2S,4s,6S)-6-((2-(3,3-difluoro-azetidin-1-yl)pyrimidin-4-yl)amino)spiro[3.3]heptan-2-yl)oxy) nicotinamide]", "IC50": 1300}, {"smiles": "[H][C@]1(Oc2ncccc2C(N)=O)C[C@]2(C[C@@H](Nc3ccnc(-c4cccc(F)c4)n3)C2)C1", "note": "(stereo partly drawn) [Example 70, 2-(((2S,4s,6S)-6-((2-(3-fluorophenyl)pyrimidin-4-yl)amino)spiro[3.3]heptan-2-yl)oxy) nicotinamide]", "IC50": 2240}]}]}
